Laboratory results taken from patent publication US11976083B2, “Inhibitors of peptidylarginine deiminases” (Gilead Sciences, Inc., priority 2020, dated 2024).

Target: T1, human PAD4 (Homo sapiens, UniProt Q9UM07)
T1 construct: human PAD4 (NM_012387), A2-P663, was PCR amplified; His-SUMO (N, cleaved yes); made in house; host or cells: E. coli BL21(DE3)
Test: In vitro PAD4 BAEE biochemical assay
Details: BAEE substrate 3 mM, 5 nM PAD4, 2 mM calcium chloride; geometric mean of multiple experiments
Summary of the method: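 Recombinant PAD4 (5 nM final) with 2 mM CaCl2 was preincubated with compound for 30 min at 25 °C in MOPS pH 7.6 buffer with DTT, then reacted with 3 mM BAEE for 2 h at 25 °C. Released ammonia was detected fluorimetrically with o-phthalaldehyde/DTT; IC50 from four-parameter fit, geometric mean of experiments.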

T1 sequence (Q9UM07 2-663): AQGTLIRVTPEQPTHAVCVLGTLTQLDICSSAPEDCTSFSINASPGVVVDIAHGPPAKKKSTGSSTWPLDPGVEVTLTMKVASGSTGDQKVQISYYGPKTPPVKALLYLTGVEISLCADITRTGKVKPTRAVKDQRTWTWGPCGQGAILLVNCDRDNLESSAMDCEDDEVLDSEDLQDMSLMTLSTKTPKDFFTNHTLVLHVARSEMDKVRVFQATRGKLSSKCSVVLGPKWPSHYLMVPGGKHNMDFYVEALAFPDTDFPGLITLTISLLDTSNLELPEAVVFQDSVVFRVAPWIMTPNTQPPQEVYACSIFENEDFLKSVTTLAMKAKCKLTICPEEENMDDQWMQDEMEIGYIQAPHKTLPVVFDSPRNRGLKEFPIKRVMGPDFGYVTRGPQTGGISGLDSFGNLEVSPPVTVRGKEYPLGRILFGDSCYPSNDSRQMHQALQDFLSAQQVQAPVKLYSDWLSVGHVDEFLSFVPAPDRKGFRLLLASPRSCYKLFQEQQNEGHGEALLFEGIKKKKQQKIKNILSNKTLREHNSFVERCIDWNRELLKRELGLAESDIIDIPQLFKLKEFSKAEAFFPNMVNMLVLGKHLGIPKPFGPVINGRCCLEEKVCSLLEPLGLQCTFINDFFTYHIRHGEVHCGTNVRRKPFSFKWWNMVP

SMILES | IC50
COc1cc(C(=O)N2CC[C@@H](OC)[C@@H](N)C2)cc2nc(-c3cc4ccc5nc4n3CCCCCc3cnc(Cl)cc3C(=O)N[C@@H]5C)n(C)c12 [Example 359, (2~{R})-17-[5-[(3~{S},4~{R})-3-amino-4-methoxy-piperidine-1-carbonyl]-7-methoxy-1-methyl-benzimidazol-2-yl]-7-chloro-2-methyl-3,8,16,22-tetrazatetracyclo[14.5.2.0^{5,10}.0^{19,23}] tricosa-1(22),5,7,9,17,19(23),20-heptaen-4-one] | 104 nM
COc1cc(C(=O)N2[C@H]3CC[C@@H]2[C@H](N)C3)cc2nc(-c3cc4ccc5nc4n3CCCCCCCC3(CC3)C(=O)N[C@@H]5C)n(C)c12 [Example 281, (12~{R})-18-[5-[(1~{R},2~{R},4~{S})-2-amino-7-azabicyclo[2.2.1]heptane-7-carbonyl]-7-methoxy-1-methyl-benzimidazol-2-yl]-12-methyl-spiro[1,11,20-triazatricyclo[11.5.2.0^{16,19}]icosa-13(20),14,16(19),17-tetraene-9,1′-cyclopropane]-10-one] | 88 nM
COc1cc(C(=O)N2C[C@H](N)[C@@H]3CC[C@H]2C3)cc2nc(-c3cc4ccc5nc4n3CCCCCc3cc(C(F)(F)F)ncc3C(=O)N[C@@H]5C)n(C3CC3)c12 [Example 942, (2~{R})-17-[5-[(1~{S},4~{R},5~ {R})-4-amino-2-azabicyclo [3.2.1]octane-2-carbonyl]-1-cyclopropyl-7-methoxy-benzimidazol-2-yl]-2-methyl-8-(trifluoromethyl)-3,7,16,22-tetrazatetracyclo[14.5.2.0^ {5,10).0^{19,23}]tricosa-1(22), 5(10),6,8,17,19(23),20-heptaen-4-one] | 72 nM
COc1cc(C(=O)N2CC[C@@H](OC)[C@@H](N)C2)cc2nc(-c3cc4ccc5nc4n3CCCCCC[C@@H]3C[C@H]3C(=O)N[C@@H]5C)n(C)c12 [Example 586, (2~{R},5~{R},7~{R})-15-[5-(3~{S),4~{R})-3-[amino-4-methoxy-piperidine-1-carbonyl]-7-methoxy-1-methyl-benzimidazol-2-yl]-2-methyl-3,14,20-triazatetracyclo[12.5.2.0^ {5,7}.0^{17,21}] henicosa-1(20),15,17(21), 18-tetraen-4-one] | 88 nM
COc1cc(C(=O)N2[C@H]3CC[C@@H]2[C@H](N)C3)cc2nc(-c3cc4ccc5cc4n3CCCCCCC(C)(C)C(=O)Nc3ccccc3-5)n(C)c12 [Example 100, 18-[5-[(1~{R},2~{R},4~{S})-2-amino-7-azabicyclo[2.2.1]heptane-7-carbonyl]-7-methoxy-1-methyl-benzimidazol-2-yl]-10,10-dimethyl-8,17-diazatetracyclo[15.5.2.0^{2,7}.0^{20,24}] tetracosa-1(23),2(7),3,5,18,20(24),21-heptaen-9-one] | 833 nM
COc1cc(C(=O)N2CCC[C@@H](N)C2)cc2nc(-c3cc4ccc5nc4n3CCCCCCc3ccccc3C(=O)N[C@@H]5C)n(C)c12 [Example 29, (2~{R})-18-[5-[(3~{R})-3-aminopiperidine-1-carbonyl]-7-methoxy-1-methyl-benzimidazol-2-yl]-2-methyl-3,17,23-triazatetracyclo[15.5.2.0^{5,10}.0^{20,24}] tetracosa-1(23),5,7,9,18,20(24),21-heptaen-4-one] | 70 nM
COc1cc(C(=O)N2C[C@H](N)[C@@H]3CC[C@H]2C3)cc2nc(-c3cc4ccc5nc4n3CCCCCc3nccnc3C(=O)N[C@@H]5C)n(C)c12 [Example 484, (2~{R})-17-[5-[(1~{S},4~{R},5~{R})-4-amino-2-azabicyclo[3.2.1]octane-2-carbonyl]-7-methoxy-1-methyl-benzimidazol-2-yl]-2-methyl-3,6,9,16,22-pentazatetracyclo[14.5.2.0^{5,10}.0^{19, 23}]tricosa-1(22),5(10),6,8,17,19(23),20-heptaen-4-one] | 44 nM
C[C@H]1NC(=O)C2(CCCCCCn3c(-c4nc5cc(C(=O)N[C@H]6CNCC[C@@H]6F)c(F)cc5n4C4CC4)cc4ccc1nc43)COC2 [Example 603, 1-cyclopropyl-6-fluoro-~ {N}-[(3~{S},4~{S})-4-fluoro-3-piperidyl]-2-[(11~{R})-11-methyl-9-oxo-spiro[1,10,19-triazatricyclo [10.5.2.0^{15,18}]nonadeca-12,14,16,18-tetraene-8,3′-oxetane]-17-yl] benzimidazole-5-carboxamide] | 44 nM
COc1cc(C(=O)N2CCC[C@@H](N)C2)cc2nc(-c3cc4ccc5nc4n3C[C@@H]3C[C@H]3C(OC)CCCC(=O)N[C@@H]5C)n(C)c12 (stereo partly drawn) [Example 270, (3~{R},5~{R},12~{R})-18-[5-[(3~{R})-3-aminopiperidine-1-carbonyl]-7-methoxy-1-methyl-benzimidazol-2-yl]-6-methoxy-12-methyl-1,11,20-triazatetracyclo[11.5.2.0^{3,5}.0^{16,19}] icosa-13(20),14,16(19),17-tetraen-10-one] | 90 nM
COc1cc(C(=O)N2CC[C@@H](OC(F)F)[C@@H](N)C2)cc2nc(-c3cc4ccc5nc4n3CCCCCc3cnccc3C(=O)N[C@@H]5C)n(C)c12 [Example 492, (2~{R})-17-[5-[(3~{S}, 4~{R})-3-amino-4-(difluoromethoxy)piperidine-1-carbonyl]-7-methoxy-1-methyl-benzimidazol-2-yl]-2-methyl-3,8,16,22-tetrazatetracyclo [14.5.2.0^{5,10}.0^{19,23}] tricosa-1(22),5(10), 6,8,17,19(23),20-heptaen-4-one] | 156 nM
COc1cc(C(=O)N[C@H]2CNCC[C@@H]2F)cc2nc(-c3cc4ccc5nc4n3CCCCC[C@@H]3C[C@@H]3C(=O)N[C@@H]5C)n(C)c12 [Example 523, ~{N}-[(3~{S},4~ {S})-4-fluoro-3-piperidyl]-7-methoxy-1-methyl-2-[(2~{R},5~ {S},7~{R})-2-methyl-4-oxo-3,13,19-triazatetracyclo [11.5.2.0^{5,7}.0^{16,20}]icosa-1(19),14,16(20), 17-tetraen-14-yl] benzimidazole-5-carboxamide] | 205 nM

Now those with a lower IC50, led by results:

IC50 | SMILES
29 nM | COc1cc(C(=O)N2C[C@H](N)[C@@H]3CC[C@H]2C3)cc2nc(-c3cc4cc(F)c5cc4n3CC(F)(F)CCC[C@@H]3C[C@H]3C(=O)N[C@@H]5C)n(C)c12 [Example 463, (2~{R},5~{R},7~{R})-14-[5-[(1~{S},4~{R},5~{R})-4-amino-2-azabicyclo[3.2.1]octane-2-carbonyl]-7-methoxy-1-methyl-benzimidazol-2-yl]-11,11,18-trifluoro-2-methyl-3,13-diazatetracyclo[11.5.2.0^{5,7}.0^{16,20}] icosa-1(19),14,16(20),17-tetraen-4-one]
22 nM | CO[C@@H]1CCN(C(=O)c2cc(F)c3c(c2)nc(-c2cc4ccc5nc4n2CC(F)(F)CCC[C@]2(F)C[C@H]2C(=O)N[C@@H]5C)n3C2CC2)C[C@@H]1N [Example 700, (2~{R},5~{S},7~{S})-14-[5-[(3~{S},4~{R})-3-amino-4-methoxy-piperidine-1-carbonyl]-1-cyclopropyl-7-fluoro-benzimidazol-2-yl]-7,11,11-trifluoro-2-methyl-3,13,19-triazatetracyclo[11.5.2.0^ {5,7}.0^{16,20}]icosa-1(19),14,16(20),17-tetraen-4-one]
42 nM | COc1cc(C(=O)N2[C@H]3CC[C@@H]2[C@H](N)C3)cc2nc(-c3cc4ccc5nc4n3CCCCCc3nccnc3C(=O)N[C@@H]5C)n(C)c12 [Example 598, (2~{R})-17-[5-[(1~{R}, 2~{R},4~{S})-2-amino-7-azabicyclo[2.2.1]heptane-7-carbonyl]-7-methoxy-1-methyl-benzimidazol-2-yl]-2-methyl-3,6,9,16,22-pentazatetracyclo[14.5.2.0^ {5,10}.0^{19,23}] tricosa-1(21),5(10),6,8,17, 19,22-heptaen-4-one]
6 nM | C[C@@H]1[C@H](N)CCCN1C(=O)c1cc(Cl)c2c(c1)nc(-c1cc3ccc4nc3n1CC(F)(F)CCC[C@@H]1C[C@H]1C(=O)N[C@@H]4C)n2C1CC1 [Example 805, (2~{R},5~{R},7~{R})-14-[5-[(2~{R},3~{R})-3-amino-2-methyl-piperidine-1-carbonyl]-7-chloro-1-cyclopropyl-benzimidazol-2-yl]-11,11-difluoro-2-methyl-3,13,19-triazatetracyclo[11.5.2.0^ {5,7}.0^{16,20}]icosa-1(18),14,16,19-tetraen-4-one]
27 nM | COc1cc(C(=O)N2C[C@H](N)[C@@H]3CC[C@H]2C3)cc2nc(-c3cc4ccc5nc4n3CCCCCC[C@H](c3ccccn3)C(=O)N[C@@H]5C)n(C)c12 [Example 892, (8~{R},11~{R})-17-[5-[(1~{S},4~{R},5~{R})-4-amino-2-azabicyclo[3.2.1]octane-2-carbonyl]-7-methoxy-1-methyl-benzimidazol-2-yl]-11-methyl-8-(2-pyridyl)-1,10,19-triazatricyclo[10.5.2.0^{15,18}] nonadeca-12(19), 13,15(18),16-tetraen-9-one]
10 nM | C[C@@H]1[C@H](N)CCCN1C(=O)c1cc(F)c2c(c1)nc(-c1cc3ccc4nc3n1CC(F)(F)CCC[C@@H]1C[C@H]1C(=O)N[C@@H]4C)n2[C@@H]1C[C@@H]1F [Example 747, (2~{R},5~{R},7~{R})-14-[5-[(2~{R},3~{R})-3-amino-2-methyl-piperidine-1-carbonyl]-7-fluoro-1-[(1~{R},2~{S})-2-fluorocyclopropyl]benzimidazol-2-yl]-11,11-difluoro-2-methyl-3,13,19-triazatetracyclo [11.5.2.0^{5,7}.0^{16,20}] icosa-1(19),14,16(20),17-tetraen-4-one]
23 nM | C[C@H]1NC(=O)[C@H]2[C@H](CCCCCn3c(-c4nc5cc(C(=O)N[C@H]6CNCC[C@@H]6F)c(F)cc5n4C4CC4)cc4ccc1nc43)C2(F)F [Example 394, 1-cyclopropyl-2-[(2~{R},5~{R},7~{S})-6,6-difluoro-2-methyl-4-oxo-3,13,19-triazatetracyclo[11.5.2.0^{5,7}.0^{16,20}]icosa-1(19),14,16(20),17-tetraen-14-yl]-6-fluoro-~{N}-[(3~{S},4~{S})-4-fluoro-3-piperidyl]benzimidazole-5-carboxamide]
